Results published in patent publication US10633419B2, “Immunomodulators” (BRISTOL-MYERS SQUIBB COMPANY, priority 2014, dated 2020).
Positions of bridges follow the written chain, without caps; N, C: chain ends. Non-standard residues stand in square brackets, D forms with d. Residues, ends and D or L forms follow the SMILES beside them. *: point of attachment. X6 = O=C(O)CCCCCCCCCCCCCCCCC(=O)N[C@@H](CCC(=O)NCCCOCCOCCOCCCN*)C(=O)O; X13 = O=C(O)CCCCCCCCCCCCCCC(=O)N[C@@H](CCC(=O)NCCCOCCOCCOCCCN*)C(=O)O; Trp(1-CH2COOH) = N[C@@H](Cc1cn(CC(=O)O)c2ccccc12)C(=O)O; NH(CH2)12COOH = O=C(O)CCCCCCCCCCCCN*; cisHyp = O=C(O)[C@@H]1C[C@H](O)CN1; Hyp = O=C(O)[C@@H]1C[C@@H](O)CN1; NMeNle = CCCC[C@H](NC)C(=O)O; NMeA = CN[C@@H](C)C(=O)O; Aun = NCCCCCCCCCCC(=O)O; Dab = NCC[C@H](N)C(=O)O; Dap = NC[C@H](N)C(=O)O

Each molecule was assayed against T1, PD-L1 (Homo sapiens, UniProt Q9NZQ7) (assay: PD-1/PD-L1 Homogenous Time-Resolved Fluorescence (HTRF) binding assay (PD-1-Ig/PD-L1-His)). Details: inhibition of PD-1-Ig binding to PD-L1-TVMV-His; value given as number; read-out: HTRF IC50.
T1 construct: hPDL1(19-239)-TVMV-His; made in house; host or cells: HEK293T
T1 sequence (Q9NZQ7 with tags, fused parts or gaps): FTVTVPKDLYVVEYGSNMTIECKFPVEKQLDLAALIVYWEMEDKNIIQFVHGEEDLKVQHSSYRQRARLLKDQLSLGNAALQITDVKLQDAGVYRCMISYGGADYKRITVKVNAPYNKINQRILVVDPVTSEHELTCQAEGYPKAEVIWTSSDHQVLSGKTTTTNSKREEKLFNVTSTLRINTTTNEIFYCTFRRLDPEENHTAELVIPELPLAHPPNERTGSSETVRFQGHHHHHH
Outline: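 HTRF competition in dPBS with 0.1% BSA and 0.05% Tween-20: 20 nM PD-1-Ig added after 15 min compound pre-incubation with 10 nM PD-L1-His, then another 15 min. Signal (665/620 nm) after 30 min with APC anti-His (20 nM) and Eu anti-Ig (1 nM).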

Structure (SMILES)	IC50 [nM]
CCCC[C@H]1C(=O)N(C)[C@@H](CCCC)C(=O)N[C@@H](CC(C)C)C(=O)N[C@H](C(=O)NCC(=O)N[C@@H](Cc2cn(CCOCCOCCOCCOCCOCCOCCOCCOCCOCCOCCOCCNC(=O)C[C@H](NC(=O)CCCCCCCCCCCCCCCCC(=O)O)C(=O)O)nn2)C(=O)O)CSCC(=O)N[C@@H](Cc2ccc(O)cc2)C(=O)N(C)[C@@H](C)C(=O)N[C@@H](CC(N)=O)C(=O)N2CCC[C@H]2C(=O)N[C@@H](CN)C(=O)N[C@@H](CC(C)C)C(=O)N2C[C@H](O)C[C@H]2C(=O)N[C@@H](Cc2c[nH]c3ccccc23)C(=O)N[C@@H](CCN)C(=O)N[C@@H](Cc2cn(CC(=O)O)c3ccccc23)C(=O)N1C [Example 14103]	14

Same assay, conditions: inhibition of PD-1-Ig binding to PD-L1-TVMV-His; value given as range class; read-out: HTRF IC50

Structure (SMILES)	IC50 [nM]
CCCC[C@H]1C(=O)N(C)[C@@H](CCCC)C(=O)N[C@@H](CC(C)C)C(=O)N[C@H](C(=O)NCC(=O)NCCCCCCCCCCC(=O)O)CSCC(=O)N[C@@H](Cc2ccc(O)cc2)C(=O)N(C)[C@@H](C)C(=O)N[C@@H](CC(N)=O)C(=O)N2CCC[C@H]2C(=O)N[C@@H](CO)C(=O)N[C@@H](CCC(N)=O)C(=O)N2C[C@H](O)C[C@H]2C(=O)N[C@@H](Cc2c[nH]c3ccccc23)C(=O)N[C@@H](CO)C(=O)N[C@@H](Cc2cn(CC(=O)O)c3ccccc23)C(=O)N1C [Example 11084] ({CH2CO}-Y[NMeA]NPSQ[Hyp]WS[Trp(1-CH2COOH)][NMeNle][NMeNle]LCG[Aun]-OH; thioether N-14)	10 to 99
CCCC[C@H]1C(=O)N(C)[C@@H](CCCC)C(=O)N[C@@H](CC(C)C)C(=O)N[C@H](C(=O)NCC(=O)N[C@@H](CC(=O)O)C(=O)N[C@@H](CCC(=O)NCCCOCCOCCOCCCNC(=O)CC[C@H](NC(=O)CCCCCCCCCCCCCCC(=O)O)C(=O)O)C(=O)O)CSCC(=O)N[C@@H](Cc2ccc(O)cc2)C(=O)N(C)[C@@H](C)C(=O)N[C@@H](CC(N)=O)C(=O)N2CCC[C@H]2C(=O)N[C@@H](CN)C(=O)N[C@@H](CC(C)C)C(=O)N2C[C@H](O)C[C@H]2C(=O)N[C@@H](Cc2c[nH]c3ccccc23)C(=O)N[C@@H](CCN)C(=O)N[C@@H](Cc2cn(CC(=O)O)c3ccccc23)C(=O)N1C [Example 11170] ({CH2CO}-Y[NMeA]NP[Dap]L[Hyp]W[Dab][Trp(1-CH2COOH)][NMeNle][NMeNle]LCGDE(X13)-OH; thioether N-14)	0.3 to 9.9
CCCC[C@H]1C(=O)N(C)[C@@H](CCCC)C(=O)N[C@@H](CC(C)C)C(=O)N[C@H](C(=O)NCCCCCCCCCCCCC(=O)O)CSCC(=O)N[C@@H](Cc2ccc(O)cc2)C(=O)N(C)[C@@H](C)C(=O)N[C@@H](CC(N)=O)C(=O)N2CCC[C@@H]2C(=O)N[C@@H](CN)C(=O)N[C@@H](CC(C)C)C(=O)N2C[C@@H](O)C[C@H]2C(=O)N[C@@H](Cc2c[nH]c3ccccc23)C(=O)N[C@@H](CCN)C(=O)N[C@@H](Cc2cn(CC(=O)O)c3ccccc23)C(=O)N1C [Example 11204] ({CH2CO}-Y[NMeA]N[dP][Dap]L[cisHyp]W[Dab][Trp(1-CH2COOH)][NMeNle][NMeNle]LC-{NH(CH2)12COOH}; thioether N-14)	10 to 99
CCCC[C@H]1C(=O)N(C)[C@@H](CCCC)C(=O)N[C@@H](CC(C)C)C(=O)N[C@H](C(=O)NCC(=O)N[C@@H](CC(=O)O)C(=O)NCCCOCCOCCOCCCNC(=O)CC[C@H](NC(=O)CCCCCCCCCCCCCCCCC(=O)O)C(=O)O)CSCC(=O)N[C@@H](Cc2ccc(O)cc2)C(=O)N(C)[C@@H](C)C(=O)N[C@@H](CC(N)=O)C(=O)N2CCC[C@H]2C(=O)N[C@@H](CN)C(=O)N[C@@H](CC(C)C)C(=O)N2C[C@H](O)C[C@H]2C(=O)N[C@@H](Cc2c[nH]c3ccccc23)C(=O)N[C@@H](CCN)C(=O)N[C@@H](Cc2cn(CC(=O)O)c3ccccc23)C(=O)N1C [Example 11224] ({CH2CO}-Y[NMeA]NP[Dap]L[Hyp]W[Dab][Trp(1-CH2COOH)][NMeNle][NMeNle]LCGD-X6; thioether N-14)	0.3 to 9.9
CCCC[C@H]1C(=O)N(C)[C@@H](CCCC)C(=O)N[C@@H](CC(C)C)C(=O)N[C@H](C(=O)NCCCCCCCCCCC(=O)NCCCCCCCCCCC(=O)NCCCCCCCCCCC(=O)O)CSCC(=O)N[C@@H](Cc2ccc(O)cc2)C(=O)N(C)[C@@H](C)C(=O)N[C@@H](CC(N)=O)C(=O)N2CCC[C@H]2C(=O)N[C@@H](CN)C(=O)N[C@@H](CCC(N)=O)C(=O)N2C[C@H](O)C[C@H]2C(=O)N[C@@H](Cc2c[nH]c3ccccc23)C(=O)N[C@@H](CO)C(=O)N[C@@H](Cc2cn(CC(=O)O)c3ccccc23)C(=O)N1C [Example 11090] ({CH2CO}-Y[NMeA]NP[Dap]Q[Hyp]WS[Trp(1-CH2COOH)][NMeNle][NMeNle]LC[Aun][Aun][Aun]-OH; thioether N-14)	10 to 99
